Measurements: patent US20060069132A1, “Azolecarboxamide herbicides” (priority 2004, published 2006)

Key:
barnyardgrass = experiment: Test C flooded paddy test; type: in vivo, Echinochloa crus-galli; conditions: for Plant response rating, Barnyardgrass: 500 g ai/ha, visual rating after 12 to 14 days
Summary of the method: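 Scoring by eye, 12–14 days post-treatment, greenhouse-held plants vs. controls; 0 no effect, 100 complete control. Sprayed at 1–4 leaves (2–18 cm); paddy barnyardgrass at 2 leaves, flooded.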

johnsongrass = experiment: Test C pre-/postemergence herbicide test; type: in vivo, Sorghum halepense; conditions: preemergence; for Plant response rating (0 = no effect, 100 = complete control), Johnsongrass: 125 g ai/ha
Summary of the method: (§1)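 Seeds were planted and sprayed preemergence with test chemicals in a non-phytotoxic solvent mixture containing surfactant; postemergence treatments went onto plants 2 to 18 cm tall (1- to 4-leaf stage). After 12 to 14 days in a greenhouse, injury was rated visually against untreated controls on a 0–100 scale.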

woolly cupgrass = experiment: Test C pre-/postemergence herbicide test; type: in vivo, Eriochloa villosa; conditions: preemergence; for Plant response rating (0 = no effect, 100 = complete control), Cupgrass, Woolly: 125 g ai/ha
Summary of the method: as §1

Surinam grass = experiment: Test C pre-/postemergence herbicide test; type: in vivo, Urochloa decumbens; conditions: preemergence; for Plant response rating (0 = no effect, 100 = complete control), Surinam Grass: 125 g ai/ha
Summary of the method: as §1

morningglory = experiment: Test C pre-/postemergence herbicide test; type: in vivo, Ipomoea coccinea; design: key to Plant response rating, Morningglory: 0 = no effect, 100 = complete control; conditions: preemergence; for Plant response rating (0 = no effect, 100 = complete control), Morningglory: 125 g ai/ha
Summary of the method: as §1

bermudagrass = experiment: Test C pre-/postemergence herbicide test; type: in vivo, Cynodon dactylon; conditions: preemergence; for Plant response rating (0 = no effect, 100 = complete control), Bermudagrass: 125 g ai/ha
Summary of the method: as §1

[1] = 62 g ai/ha, scale 0 to 100 (0 no effect, 100 complete control)
[2] = 125 g ai/ha, scale 0 to 100 (0 no effect, 100 complete control)
[3] = 250 g ai/ha, scale of 0 to 100, 0 is no effect, 100 is complete control
[4] = scale 0 to 100 (0 no effect, 100 complete control)
[5] = 500 g ai/ha, scale 0 to 100 (0 no effect, 100 complete control), visual, 12 to 14 days
[6] = 62 g ai/ha, scale 0 to 100, 0 no effect, 100 complete control

| Structure (SMILES) | Barnyardgrass plant response rating (barnyardgrass; [1]) | Barnyardgrass plant response rating (barnyardgrass; [2]) | Barnyardgrass plant response rating (barnyardgrass; [3]) | Plant response rating, Barnyardgrass (barnyardgrass; [4]) | Plant response rating, Johnsongrass (johnsongrass; 62 g ai/ha, scale 0 to 100) | Plant response rating (0 = no effect, 100 = complete control), Johnsongrass (johnsongrass) | Plant response rating, Johnsongrass (johnsongrass; 250 g ai/ha, scale 0-100) | Plant response rating, Johnsongrass (johnsongrass; [5]) | Plant response rating, Cupgrass, Woolly (woolly cupgrass; 62 g ai/ha, scale 0 to 100) | Plant response rating (0 = no effect, 100 = complete control), Cupgrass, Woolly (woolly cupgrass) | Plant response rating, Cupgrass, Woolly (woolly cupgrass; 250 g ai/ha, scale 0-100) | Plant response rating, Cupgrass, Woolly (woolly cupgrass; [5]) | Plant response rating, Surinam Grass (Surinam grass; 62 g ai/ha, scale 0 to 100) | Plant response rating (0 = no effect, 100 = complete control), Surinam Grass (Surinam grass) | Plant response rating, Surinam Grass (Surinam grass; [5]) | Plant response rating, Morningglory (morningglory; 62 g ai/ha, scale 0 to 100) | Plant response rating (0 = no effect, 100 = complete control), Morningglory (morningglory) | Plant response rating, Morningglory (morningglory; [5]) | Plant response rating, Bermudagrass (bermudagrass; [6]) | Plant response rating (0 = no effect, 100 = complete control), Bermudagrass (bermudagrass) | further results |
| --- | --- | --- | --- | --- | --- | --- | --- | --- | --- | --- | --- | --- | --- | --- | --- | --- | --- | --- | --- | --- | --- |
| CCc1nn(C(C)C)nc1C(=O)Nc1cccc(C(=O)N(C)CC)c1 [Compound 386] | 30 | 50 | 80 | 95 | 85 | 100 | 100 | 100 | 50 | 90 | 95 | 95 | 80 | 80 | 95 | 55 | 95 | 100 | 90 | 95 | Plant response rating, Surinam Grass (Surinam grass; 250 g ai/ha, scale 0-100): 95; Plant response rating, Morningglory (morningglory; 250 g ai/ha, scale 0-100): 100; Plant response rating, Bermudagrass (bermudagrass; 250 g ai/ha, scale 0-100): 95; Plant response rating, Bermudagrass (bermudagrass; [5]): 95 |
| CCc1nn(C(C)C)nc1C(=O)Nc1cccc(C(=S)N(C)C)c1 [Compound 409] | 20 | 20 | 40 | 60 | 35 | 80 | 95 | 95 | 40 | 55 | 80 | 80 | 50 | 85 | 95 | 10 | 40 | 100 | 40 | 50 | Plant response rating, Bermudagrass (bermudagrass; 250 g ai/ha, scale 0-100): 85; Plant response rating, Bermudagrass (bermudagrass; [5]): 85 |
